Values belong to the molecule of their own block, whether it stands above or below them.
Test: 30 day drop test, API retention after dropper tip packed with OxPO
Assay type: physicochemical
Details: for API concentration in drops: tip packed with OxHDPE A-C 395, 125-250 μm, acid washed; for API concentration: Initial formulation
Method: To 60.0 g of ultrapure water was added 0.090 g hydroxyethyl cellulose (Natrosol 250H) and the solution was stirred overnight to dissolve. Subsequently, 0.176 g sodium citrate dihydrate and 0.960 g mannitol were added and the mixture was stirred until completely dissolved. 1.37 g Dorzolamide Hydrochloride, 0.420 g Timolol Maleate and 0.045 g of a 10% aqueous solution of BAK were added and incorporated. The pH was adjusted to 5.65 with 0.01N NaOH solution. The final nominal concentrations are reported below.
An empty dropper tip equipped with a 25 μm filter at the tip exit was packed with approximately […] of OxPO and the backing filter was attached to retain the OxPO packing in place. The weight of the OxPO packing was recorded. The packed tip was then inserted into the neck of an 8 ml dropper bottle containing 5 ml of the API/BAK test solution.
5 ml of the formulation described above containing nominally 5.0 mg/ml Timolol, 20.0 mg/ml Dorzolamide and 75 μg/ml BAK was loaded into six eyedropper bottles packed with OxHDPE (A-C 395, 125-250 μm, acid washed) as described above. Drops were obtained from each bottle twice a day (AM and PM 8 hours apart) and analyzed by HPLC for API and BAK.

API concentration in drops (Day 1A): 4.93 mg/mL | API concentration in drops (Day 1P): 4.91 mg/mL | API concentration in drops (Day 2A): 4.51 mg/mL | API concentration in drops (Day 2P): 4.64 mg/mL | API concentration in drops (Day 3A): 4.60 mg/mL | API concentration in drops (Day 3P): 4.65 mg/mL | API concentration in drops (Day 4A): 4.59 mg/mL | API concentration in drops (Day 4P): 4.72 mg/mL | API concentration in drops (Day 5A): 4.68 mg/mL | API concentration in drops (Day 5P): 4.78 mg/mL | API concentration in drops (Day 6A): 4.76 mg/mL | API concentration in drops (Day 6P): 4.90 mg/mL | API concentration in drops (Day 7A): 4.86 mg/mL | API concentration in drops (Day 7P): 4.91 mg/mL | API concentration in drops (Day 8A): 4.85 mg/mL | API concentration in drops (Day 8P): 4.89 mg/mL | API concentration in drops (Day 9A): 4.84 mg/mL | API concentration in drops (Day 9P): 4.87 mg/mL | API concentration in drops (Day 10A): 4.89 mg/mL | API concentration in drops (Day 10P): 4.90 mg/mL | API concentration in drops (Day 11A): 4.89 mg/mL | API concentration in drops (Day 11P): 4.96 mg/mL | API concentration in drops (Day 12A): 4.86 mg/mL | API concentration in drops (Day 12P): 4.95 mg/mL | API concentration in drops (Day 13A): 4.89 mg/mL | API concentration in drops (Day 13P): 4.93 mg/mL | API concentration in drops (Day 14A): 4.86 mg/mL | API concentration in drops (Day 14P): 4.97 mg/mL | API concentration in drops (Day 15A): 4.87 mg/mL | API concentration in drops (Day 15P): 4.93 mg/mL | API concentration in drops (Day 16A): 4.90 mg/mL | API concentration in drops (Day 16P): 5.01 mg/mL | API concentration in drops (Day 17A): 4.90 mg/mL | API concentration in drops (Day 17P): 4.97 mg/mL | API concentration in drops (Day 18A): 4.98 mg/mL | API concentration in drops (Day 18P): 4.97 mg/mL | API concentration in drops (Day 19A): 4.87 mg/mL | API concentration in drops (Day 19P): 4.98 mg/mL | API concentration in drops (Day 20A): 4.99 mg/mL | API concentration in drops (Day 20P): 5.02 mg/mL | API concentration in drops (Day 21A): 4.92 mg/mL | API concentration in drops (Day 21P): 4.95 mg/mL | API concentration in drops (Day 22A): 4.98 mg/mL | API concentration in drops (Day 22P): 4.93 mg/mL | API concentration in drops (Day 23A): 4.96 mg/mL | API concentration in drops (Day 23P): 4.97 mg/mL | API concentration in drops (Day 24A): 4.94 mg/mL | API concentration in drops (Day 24P): 4.96 mg/mL | API concentration in drops (Day 25A): 4.90 mg/mL | API concentration in drops (Day 25P): 4.93 mg/mL | API concentration in drops (Day 26A): 4.97 mg/mL | API concentration in drops (Day 26P): 4.96 mg/mL | API concentration in drops (Day 27A): 4.96 mg/mL | API concentration in drops (Day 27P): 4.97 mg/mL | API concentration in drops (Day 28A): 4.93 mg/mL | API concentration in drops (Day 28P): 4.95 mg/mL | API concentration in drops (Day 29A): 4.90 mg/mL | API concentration in drops (Day 29P): 4.93 mg/mL | API concentration in drops (Day 30A): 4.98 mg/mL | API concentration in drops (Day 30P): 4.97 mg/mL | API concentration: 5.04 (mg/ml)
SMILES: CC(C)(C)NC[C@H](O)COc1nsnc1N1CCOCC1 [Timolol]

API concentration in drops (Day 1A): 20.0 mg/mL | API concentration in drops (Day 1P): 20.1 mg/mL | API concentration in drops (Day 2A): 19.2 mg/mL | API concentration in drops (Day 2P): 19.4 mg/mL | API concentration in drops (Day 3A): 19.5 mg/mL | API concentration in drops (Day 3P): 19.6 mg/mL | API concentration in drops (Day 4A): 19.3 mg/mL | API concentration in drops (Day 4P): 19.7 mg/mL | API concentration in drops (Day 5A): 19.7 mg/mL | API concentration in drops (Day 5P): 19.8 mg/mL | API concentration in drops (Day 6A): 19.8 mg/mL | API concentration in drops (Day 6P): 20.2 mg/mL | API concentration in drops (Day 7A): 20.3 mg/mL | API concentration in drops (Day 7P): 20.3 mg/mL | API concentration in drops (Day 8A): 20.1 mg/mL | API concentration in drops (Day 8P): 20.2 mg/mL | API concentration in drops (Day 9A): 19.8 mg/mL | API concentration in drops (Day 9P): 19.5 mg/mL | API concentration in drops (Day 10A): 19.8 mg/mL | API concentration in drops (Day 10P): 20.1 mg/mL | API concentration in drops (Day 11A): 19.9 mg/mL | API concentration in drops (Day 11P): 19.9 mg/mL | API concentration in drops (Day 12A): 19.8 mg/mL | API concentration in drops (Day 12P): 19.9 mg/mL | API concentration in drops (Day 13A): 19.9 mg/mL | API concentration in drops (Day 13P): 19.9 mg/mL | API concentration in drops (Day 14A): 19.7 mg/mL | API concentration in drops (Day 14P): 20.0 mg/mL | API concentration in drops (Day 15A): 19.8 mg/mL | API concentration in drops (Day 15P): 19.9 mg/mL | API concentration in drops (Day 16A): 19.5 mg/mL | API concentration in drops (Day 16P): 19.8 mg/mL | API concentration in drops (Day 17A): 19.4 mg/mL | API concentration in drops (Day 17P): 19.4 mg/mL | API concentration in drops (Day 18A): 19.7 mg/mL | API concentration in drops (Day 18P): 19.6 mg/mL | API concentration in drops (Day 19A): 19.2 mg/mL | API concentration in drops (Day 19P): 19.5 mg/mL | API concentration in drops (Day 20A): 19.6 mg/mL | API concentration in drops (Day 20P): 19.7 mg/mL | API concentration in drops (Day 21A): 19.6 mg/mL | API concentration in drops (Day 21P): 19.7 mg/mL | API concentration in drops (Day 22A): 20.0 mg/mL | API concentration in drops (Day 22P): 19.5 mg/mL | API concentration in drops (Day 23A): 19.8 mg/mL | API concentration in drops (Day 23P): 19.8 mg/mL | API concentration in drops (Day 24A): 19.8 mg/mL | API concentration in drops (Day 24P): 19.8 mg/mL | API concentration in drops (Day 25A): 19.6 mg/mL | API concentration in drops (Day 25P): 19.7 mg/mL | API concentration in drops (Day 26A): 20.2 mg/mL | API concentration in drops (Day 26P): 20.1 mg/mL | API concentration in drops (Day 27A): 20.1 mg/mL | API concentration in drops (Day 27P): 20.1 mg/mL | API concentration in drops (Day 28A): 20.1 mg/mL | API concentration in drops (Day 28P): 19.9 mg/mL | API concentration in drops (Day 29A): 19.6 mg/mL | API concentration in drops (Day 29P): 19.6 mg/mL | API concentration in drops (Day 30A): 20.1 mg/mL | API concentration in drops (Day 30P): 20.1 mg/mL | API concentration: 21.0 (mg/ml)
SMILES: CCN[C@H]1C[C@H](C)S(=O)(=O)c2sc(S(N)(=O)=O)cc21 [Dorzolamide]
